Each structure is given as a SMILES string.

In this experiment the target is GST-tagged truncated human mutant G2019S LRRK2 (Homo sapiens, UniProt Q5S007, G2019S). The experiment is described as follows: LRRK2 G2019S Km ATP LanthaScreen assay. The format is biochemical. Conditions: 134 μM ATP (Km ATP), LRRKtide substrate, mean IC50 values; read-out: LRRK2 pIC50 (converted). In outline:
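LanthaScreen TR-FRET read with fluorescein-LRRKtide and 134 μM ATP (Km) in Tris pH 8.5/10 mM MgCl2 buffer. The enzyme was preincubated 15 min with compound at room temperature, and the reaction ran 90 min at ambient temperature. Stopped with EDTA plus Tb anti-phospho-LRRKtide antibody; the 520/495 nm ratio gave a 4-parameter logistic IC50, mean of several runs.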
(Time-resolved FRET reads energy transfer from a long-lived donor to a nearby acceptor.)
On to `Cn1ncc(Nc2ncc3cc(Cl)c(N4CCN(C5COCC5O)CC4)cc3n2)c1Cl` (single isomer, unassigned) [Ex-6.7, (3S,4S) or (3R,4R) 4-(4-{6-chloro-2-[(5-chloro-1-methyl-1H-pyrazol-4-yl)amino]quinazolin-7-yl}piperazin-1-yl)oxolan-3-ol], for which the IC50 was 1.59 nM. To `Cc1c(Nc2ncc3cc(Cl)c(N4CCC(C)(O)CC4)cc3n2)cnn1C1CC1(F)F` (single isomer, unassigned) [Ex-6.9, 1-(6-chloro-2-{[1-(2,2-(R) or (S)difluorocyclopropyl)-5-methyl-1H-pyrazol-4-yl]amino}quinazolin-7-yl)-4-methylpiperidin-4-ol] belongs 1.79 nM.

With `Cc1c(Nc2ncc3cc(Cl)c(N4CCC(C)(O)CC4)cc3n2)cnn1C1CC1(F)F` (single isomer, unassigned) [Ex-6.10, 1-(6-chloro-2-{[1-(2,2-(R) or (S)difluorocyclopropyl)-5-methyl-1H-pyrazol-4-yl]amino}quinazolin-7-yl)-4-methylpiperidin-4-ol], the IC50 was 0.2 nM.

Regarding `COC1CCC1n1ncc(Nc2ncc3cc(Cl)c(N4CCC(C)(O)CC4)cc3n2)c1C` (single isomer, unassigned) [Ex-6.16, 1-(6-chloro-2-((1-((1R,2S) or (1S,2R)-2-methoxycyclobutyl)-5-methyl-1H-pyrazol-4-yl)amino)quinazolin-7-yl)-4-methylpiperidin-4-ol], the IC50 was 1.57 nM. Regarding `COC1CCC1n1ncc(Nc2ncc3cc(Cl)c(N4CCC(C)(O)CC4)cc3n2)c1C` (single isomer, unassigned) [Ex-6.17, 1-[6-chloro-2-({1-[(1R,2S) or (1S,2R)-2-methoxycyclobutyl]-5-methyl-1H-pyrazol-4-yl}amino)quinazolin-7-yl]-4-methylpiperidin-4-ol], the IC50 was 10.5 nM. To `Cc1c(Nc2ncc3cc(Cl)c(N4CCN(C5(C)COCC5O)CC4)cc3n2)cnn1C1CC1` (single isomer, unassigned) [Ex-6.18, (3S,4S) or (3R,4R) 4-(4-{6-chloro-2-[(1-cyclopropyl-5-methyl-1H-pyrazol-4-yl)amino]quinazolin-7-yl}piperazin-1-yl)-4-methyloxolan-3-ol] belongs 0.322 nM. To `COC1CCC1n1ncc(Nc2ncc3cc(Cl)c(N4CCC(C)(O)CC4)cc3n2)c1C` (single isomer, unassigned) [Ex-6.19, 1-[6-chloro-2-({1-[(1R,2R) or (1S,2S)-2-methoxycyclobutyl]-5-methyl-1H-pyrazol-4-yl}amino)quinazolin-7-yl]-4-methylpiperidin-4-ol] belongs 2.17 nM. To `COC1CCC1n1ncc(Nc2ncc3cc(Cl)c(N4CCC(C)(O)CC4)cc3n2)c1C` (single isomer, unassigned) [Ex-6.20, 1-[6-chloro-2-({1-[(1R,2R) or (1S,2S)-2-methoxycyclobutyl]-5-methyl-1H-pyrazol-4-yl}amino)quinazolin-7-yl]-4-methylpiperidin-4-ol] belongs 2.53 nM. Turning to `Cc1c(Nc2ncc3cc(Cl)c(N4CCN(C5COCC5O)CC4)cc3n2)cnn1C(C)(C)C#N` (single isomer, unassigned) [Ex-6.21, (3S,4S) or (3R,4R) 2-[4-({6-chloro-7-[4-(4-hydroxyoxolan-3-yl)piperazin-1-yl]quinazolin-2-yl}amino)-5-methyl-1H-pyrazol-1-yl]-2-methylpropanenitrile], the IC50 was 0.323 nM. To `Cc1c(Nc2ncc3cc(Cl)c(N4CCN(C5(C)COCC5O)CC4)cc3n2)cnn1C1CC1` (single isomer, unassigned) [Ex-6.22, (3S,4S) or (3R,4R) 4-(4-{6-chloro-2-[(1-cyclopropyl-5-methyl-1H-pyrazol-4-yl)amino]quinazolin-7-yl}piperazin-1-yl)-4-methyloxolan-3-ol] belongs 33.5 nM; to `Cc1c(Nc2ncc3cc(Cl)c(N4CCN(C5COCC5O)CC4)cc3n2)cnn1C(C)(C)C#N` (single isomer, unassigned) [Ex-6.23, (3S,4S) or (3R,4R) 2-[4-({6-chloro-7-[4-(4-hydroxyoxolan-3-yl)piperazin-1-yl]quinazolin-2-yl}amino)-5-methyl-1H-pyrazol-1-yl]-2-methylpropanenitrile], 13.2 nM. To `Cc1c(Nc2ncc3cc(Cl)c(N4CCN(C5COCC5O)CC4)cc3n2)cnn1C` (single isomer, unassigned) [Ex-6.24, (3S,4S) or (3R,4R) 4-(4-{6-chloro-2-[(1,5-dimethyl-1H-pyrazol-4-yl)amino]quinazolin-7-yl}piperazin-1-yl)oxolan-3-ol] belongs 0.603 nM. Turning to `Cc1c(Nc2ncc3cc(Cl)c(N4CCN(C5COCC5O)CC4)cc3n2)cnn1CC(F)F` (single isomer, unassigned) [Ex-6.25, (3S,4S) or (3R,4R) 4-[4-(6-chloro-2-{[1-(2,2-difluoroethyl)-5-methyl-1H-pyrazol-4-yl]amino}quinazolin-7-yl)piperazin-1-yl]oxolan-3-ol], the IC50 is 0.418 nM. To `Cc1c(Nc2ncc3cc(Cl)c(N4CCN(C5COCC5O)CC4)cc3n2)cnn1CC(F)F` (single isomer, unassigned) [Ex-6.26, (3S,4S) or (3R,4R) 4-[4-(6-chloro-2-{[1-(2,2-difluoroethyl)-5-methyl-1H-pyrazol-4-yl]amino}quinazolin-7-yl)piperazin-1-yl]oxolan-3-ol] belongs 11.5 nM; to `OC1COCC1N1CCN(c2cc3nc(Nc4cnn(C5CC5(F)F)c4Cl)ncc3cc2Cl)CC1` (single isomer, unassigned) [Ex-6.27, (3S,4S) or (3R,4R) 4-[4-(6-chloro-2-{[5-chloro-1-(2,2-(R) or (S)difluorocyclopropyl)-1H-pyrazol-4-yl]amino}quinazolin-7-yl)piperazin-1-yl]oxolan-3-ol], 0.27 nM; to `Cn1ncc(Nc2ncc3cc(Cl)c(N4CCN(C5(C)COCC5O)CC4)cc3n2)c1Cl` (single isomer, unassigned) [Ex-6.28, (3S,4S) or (3R,4R) 4-(4-{6-chloro-2-[(5-chloro-1-methyl-1H-pyrazol-4-yl)amino]quinazolin-7-yl}piperazin-1-yl)-4-methyloxolan-3-ol], 0.381 nM. To `OC1COCC1N1CCN(c2cc3nc(Nc4cnn(C5CC5(F)F)c4Cl)ncc3cc2Cl)CC1` (single isomer, unassigned) [Ex-6.29, (3S,4S) or (3R,4R) 4-[4-(6-chloro-2-{[5-chloro-1-(2,2-(R) or (S)difluorocyclopropyl)-1H-pyrazol-4-yl]amino}quinazolin-7-yl)piperazin-1-yl)oxolan-3-ol] belongs 15.2 nM.

Regarding `OC1COCC1N1CCN(c2cc3nc(Nc4cnn(C5CC5(F)F)c4Cl)ncc3cc2Cl)CC1` (single isomer, unassigned) [Ex-6.30, (3S,4S) or (3R,4R) 4-[4-(6-chloro-2-{[5-chloro-1-(2,2-(R) or (S)difluorocyclopropyl)-1H-pyrazol-4-yl]amino}quinazolin-7-yl)piperazin-1-yl]oxolan-3-ol], the IC50 was 0.9 nM. To `OC1COCC1N1CCN(c2cc3nc(Nc4cnn(C5CC5(F)F)c4Cl)ncc3cc2Cl)CC1` (single isomer, unassigned) [Ex-6.31, (3S,4S) or (3R,4R) 4-[4-(6-chloro-2-{[5-chloro-1-(2,2-(R) or (S)difluorocyclopropyl)-1H-pyrazol-4-yl]amino}quinazolin-7-yl)piperazin-1-yl]oxolan-3-ol] belongs 17.9 nM; to `Cc1c(Nc2ncc3cc(Cl)c(N4CCN(C5COCC5O)CC4)cc3n2)cnn1CC(F)(F)F` (single isomer, unassigned) [Ex-6.32, (3S,4S) or (3R,4R) 4-[4-(6-chloro-2-{[5-methyl-1-(2,2,2-trifluoroethyl)-1H-pyrazol-4-yl]amino}quinazolin-7-yl)piperazin-1-yl]oxolan-3-ol], 0.608 nM. To `CC1(N2CCN(c3cc4nc(Nc5cnn(C6CC6(F)F)c5Cl)ncc4cc3Cl)CC2)COCC1O` (single isomer, unassigned) [Ex-6.33, (3S,4S) or (3R,4R) 4-[4-(6-chloro-2-{[5-chloro-1-(2,2-(R) or (S)difluorocyclopropyl)-1H-pyrazol-4-yl]amino}quinazolin-7-yl)piperazin-1-yl]-4-methyloxolan-3-ol] belongs 0.212 nM; to `CC1(N2CCN(c3cc4nc(Nc5cnn(C6CC6(F)F)c5Cl)ncc4cc3Cl)CC2)COCC1O` (single isomer, unassigned) [Ex-6.34, (3S,4S) or (3R,4R) 4-[4-(6-chloro-2-{[5-chloro-1-(2,2-(R) or (S)difluorocyclopropyl)-1H-pyrazol-4-yl]amino}quinazolin-7-yl)piperazin-1-yl]-4-methyloxolan-3-ol], 10.6 nM. To `CC1(N2CCN(c3cc4nc(Nc5cnn(C6CC6(F)F)c5Cl)ncc4cc3Cl)CC2)COCC1O` (single isomer, unassigned) [Ex-6.35, (3S,4S) or (3R,4R) 4-[4-(6-chloro-2-{[5-chloro-1-(2,2-(R) or (S)difluorocyclopropyl)-1H-pyrazol-4-yl]amino}quinazolin-7-yl)piperazin-1-yl]-4-methyloxolan-3-ol] belongs 20.8 nM; to `Cn1ncc(Nc2ncc3cc(Cl)c(N4CCN(C5(C)COCC5O)CC4)cc3n2)c1Cl` (single isomer, unassigned) [Ex-6.36, (3S,4S) or (3R,4R) 4-[4-{6-chloro-2-[(5-chloro-1-methyl-1H-pyrazol-4-yl)amino]quinazolin-7-yl}piperazin-1-yl)-4-methyloxolan-3-ol], 11.2 nM; to `Cc1c(Nc2ncc3cc(Cl)c(N4CCN(C5COCC5O)CC4)cc3n2)cnn1CC(F)(F)F` (single isomer, unassigned) [Ex-6.37, (3S,4S) or (3R,4R) 4-[4-(6-chloro-2-{[5-methyl-1-(2,2,2-trifluoroethyl)-1H-pyrazol-4-yl]amino}quinazolin-7-yl)piperazin-1-yl]oxolan-3-ol], 6.35 nM.

The record behind these values is patent US20230303540A1 (Merck Sharp & Dohme LLC, priority 2020, published 2023).
